Series [1] in a line: Karl Fisher analysis (water content), hygroscopic stability. Format: physicochemical. Conditions: exposed to the air for 18 hours; for KF (% H2O) t = 18 h: kept at room temperature. As for the experimental part:
Water content analysis were carried out with a Metrohm's KF Coulometer, using Metrohm glass vials (volume 10 mL) with elastometric tight closure, with about 10÷40 mg of sample. The samples were analyzed at 140° C.
The reference was an empty vial of the same kind. Sodium Tartrate diHydrate (theoretical amount is 15.66%) was used to assess the calibration of the apparatus with regard to the humidity.
Then these compounds were kept at room temperature under the same conditions, exposed to the air for 18 hours.

In series [2] the target is T1, L-CPT I (liver CPT isoform I) (Homo sapiens, UniProt P50416).
T1 sequence (P50416 1-773): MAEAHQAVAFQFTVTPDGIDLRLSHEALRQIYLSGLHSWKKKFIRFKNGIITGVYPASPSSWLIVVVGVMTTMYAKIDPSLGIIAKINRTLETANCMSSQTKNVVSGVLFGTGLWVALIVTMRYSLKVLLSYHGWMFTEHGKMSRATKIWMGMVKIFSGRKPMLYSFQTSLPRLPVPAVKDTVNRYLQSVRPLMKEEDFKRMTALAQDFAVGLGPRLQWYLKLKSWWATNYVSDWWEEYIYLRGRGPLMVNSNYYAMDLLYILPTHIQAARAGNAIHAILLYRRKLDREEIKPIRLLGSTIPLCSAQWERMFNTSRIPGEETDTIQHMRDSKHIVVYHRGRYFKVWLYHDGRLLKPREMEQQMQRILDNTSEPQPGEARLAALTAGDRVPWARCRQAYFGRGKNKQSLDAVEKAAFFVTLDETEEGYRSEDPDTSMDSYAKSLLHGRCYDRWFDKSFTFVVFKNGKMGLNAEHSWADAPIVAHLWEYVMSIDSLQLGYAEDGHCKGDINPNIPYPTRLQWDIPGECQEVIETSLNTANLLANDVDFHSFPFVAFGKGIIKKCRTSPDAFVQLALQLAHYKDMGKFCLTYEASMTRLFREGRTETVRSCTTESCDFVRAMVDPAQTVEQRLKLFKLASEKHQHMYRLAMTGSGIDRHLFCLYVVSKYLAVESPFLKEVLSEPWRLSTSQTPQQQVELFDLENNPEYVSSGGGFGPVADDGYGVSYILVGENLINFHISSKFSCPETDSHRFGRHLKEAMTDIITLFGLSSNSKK
Conditions: in vitro; cited from earlier work.

For a further series, the system named is ketogenesis. Conditions: in vivo, fasted rats; cited from earlier work.
Another series relates to serum glucose levels. As to conditions: diabetic mouse model; cited from earlier work.

Each structure is given as a SMILES string.

Regarding `CCCCCCCCCCCCCCNC(=O)N[C@H](CC(=O)[O-])C[N+](C)(C)C` [Comparative Example 2, R-4-trimethylammonium-3-(tetradecylcarbamoyl)-amino butyrate], in series [1], the “KF (% H2O) t = 18 h” value is given as 15.2%. For the same compound, the “change of H2O content after exposure to air” value in series [1] (room temperature, repeated KF analysis) is “large increase of H2O content”.

In the case of `CCCCCCCCCCCCCCNC(=O)N[C@H](CC(=O)[O-])C[N+](C)(C)C` [Example 1, R-4-trimethylammonium-3-(tetradecylcarbamoyl)-amino butyrate], in series [1], the “KF (% H2O) t = 18 h” value worked out at 5.8%.

For `CCCCCCCCCCCCCCNC(=O)N[C@H](CC(=O)[O-])C[N+](C)(C)C` [teglicar, R-4-trimethylammonium-3-(tetradecylcarbamoyl)-amino butyrate], the “selectivity of inhibition of L-CPT I with respect to M-CPT I” value in series [2] is recorded as “selectively inhibit”. The effect on ketogenesis result in the series on ketogenesis was “depress ketogenesis”. Besides, in the series with serum glucose levels, the “change in heart weight and triglycerides content” value is given as “without any significant change”; the “effect on serum glucose levels” value was “good reduction of serum glucose levels”.

Source of the values: patent US8598384B2, “Crystalline teglicar” (Sigma-Tau Industrie Farmaceutiche Riunite S.p.A., priority 2007, dated 2013).
